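These data come from cells grown in 96-well plates and exposed to compound for 48 hours at five concentrations. TGI: concentration producing complete growth inhibition.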

Data on seven compounds can be found in PubChem BioAssay (NCI).

Test systems include ACHN renal; CCRF-CEM leukemia; COLO 205 colon; HCC-2998 colon; K-562 leukemia; LOX IMVI melanoma; MOLT-4 leukemia; NCI-H23 lung; NCI-H460 lung; OVCAR-3 ovarian; SF-268 CNS; SF-295 CNS; SK-MEL-2 melanoma; SN12C renal; SW-620 colon; U251 CNS; UACC-62 melanoma; SNB-75 CNS.
Experiment in all cases: growth of human tumour cells (NCI), 48 h

On to `CCOC(=O)C(C(=O)OCC)=C1N[C@H](C(=O)OCC)CS1`, for which the TGI in the test with ACHN renal, in the test on CCRF-CEM leukemia, with COLO 205 colon, with HCC-2998 colon, with K-562 leukemia and with LOX IMVI melanoma was more than 100 µM each time. In addition, the TGI in the test on MOLT-4 leukemia, in the test on NCI-H23 lung, in the test with NCI-H460 lung, with OVCAR-3 ovarian, in the test on SF-268 CNS and with SF-295 CNS was more than 100 µM in each case. Moreover, the TGI in the test on SK-MEL-2 melanoma, with SN12C renal, in the test on SW-620 colon, in the test on U251 CNS and with UACC-62 melanoma was more than 100 µM throughout.

Turning to `CC(=O)c1ccc(NC(=O)C(=O)C(C(=O)c2ccc(Cl)c(Cl)c2)C2OC(=O)c3ccccc32)cc1` (centres undefined), the TGI with ACHN renal was 45.5 µM; with CCRF-CEM leukemia, more than 100 µM; with COLO 205 colon, 28.8 µM; in the test with HCC-2998 colon, 26.9 µM; with K-562 leukemia, more than 100 µM; in the test on LOX IMVI melanoma it was 32.6 µM. Also, the TGI was more than 100 µM in the test on MOLT-4 leukemia; 32.2 µM with NCI-H23 lung; 33.5 µM with NCI-H460 lung; 42.6 µM in the test on OVCAR-3 ovarian; 38.2 µM in the test on SF-268 CNS; 59.9 µM in the test with SN12C renal. Besides, the figures for the TGI in the test with SW-620 colon, in the test with U251 CNS and with UACC-62 melanoma were more than 100 µM, 23 µM and 33.7 µM, respectively.

For `CCCCCNC(=O)c1c(O)[nH]c(=S)[nH]c1=O`, the TGI in the test with ACHN renal, with CCRF-CEM leukemia, with COLO 205 colon, in the test with K-562 leukemia, in the test on LOX IMVI melanoma and with MOLT-4 leukemia was more than 100 µM in each case. In addition, the TGI in the test on NCI-H23 lung, in the test on NCI-H460 lung, in the test with OVCAR-3 ovarian, in the test with SF-268 CNS, with SF-295 CNS and in the test on SK-MEL-2 melanoma was more than 100 µM each time. Moreover, the TGI in the test with SN12C renal, with SNB-75 CNS, in the test with SW-620 colon, in the test on U251 CNS and in the test on UACC-62 melanoma was more than 100 µM each time.

Turning to `COc1ccccc1C(N)c1ccccc1` (centres undefined), the TGI in the test on ACHN renal, in the test with CCRF-CEM leukemia, in the test with COLO 205 colon, with HCC-2998 colon, with K-562 leukemia and in the test on LOX IMVI melanoma was more than 100 µM throughout. Besides, the TGI with MOLT-4 leukemia, in the test with NCI-H23 lung, in the test on NCI-H460 lung, with OVCAR-3 ovarian, with SF-268 CNS and with SF-295 CNS was more than 100 µM throughout. The TGI in the test with SN12C renal, in the test with SNB-75 CNS, in the test on SW-620 colon, in the test with U251 CNS and with UACC-62 melanoma was more than 100 µM in each case.

Regarding `Cc1c(C(=O)/C=C/c2c(Cl)cccc2Cl)c(=O)n(-c2ccccc2)n1C`, the TGI in the test on ACHN renal was more than 100 µM; in the test on CCRF-CEM leukemia, 56.6 µM; in the test with COLO 205 colon, more than 100 µM; in the test on HCC-2998 colon it was 65.8 µM; in the test on LOX IMVI melanoma, 41.8 µM; in the test with MOLT-4 leukemia it was more than 100 µM. Besides, the TGI in the test on NCI-H460 lung is 82.7 µM; in the test with OVCAR-3 ovarian, 73.5 µM; with SF-268 CNS, more than 100 µM; with SF-295 CNS, 75.9 µM; with SK-MEL-2 melanoma, 75 µM; in the test with SN12C renal, more than 100 µM. For the same compound, the TGI in the test on SW-620 colon is 25.9 µM; in the test on U251 CNS it was 2.98 µM; in the test on UACC-62 melanoma, more than 100 µM.

As for `CCCCCCCCCCCCCCCCCC(=O)OCC(C[As](=O)(O)O)OC(=O)CCCCCCCCCCCCCCCCC` (centres undefined), the TGI with ACHN renal, in the test on CCRF-CEM leukemia, in the test on HCC-2998 colon, in the test on K-562 leukemia, in the test on MOLT-4 leukemia and with NCI-H23 lung was more than 100 µM throughout. The TGI with NCI-H460 lung, with OVCAR-3 ovarian, in the test with SF-268 CNS, in the test with SF-295 CNS, with SK-MEL-2 melanoma and in the test on SN12C renal was more than 100 µM each time. In addition, the TGI with SNB-75 CNS is 81.6 µM; in the test with SW-620 colon it was 33.8 µM; in the test on U251 CNS, more than 100 µM; in the test with UACC-62 melanoma, more than 100 µM.

As to `O=NN/C(=C1\Nc2ccc([N+](=O)[O-])cc2NC1=O)C(O)c1ccc([N+](=O)[O-])cc1` (centres undefined), the TGI in the test with ACHN renal, in the test with CCRF-CEM leukemia, in the test on COLO 205 colon, in the test with HCC-2998 colon, in the test on K-562 leukemia and in the test on LOX IMVI melanoma was more than 100 µM throughout. Further, the TGI in the test with MOLT-4 leukemia, in the test on NCI-H23 lung, in the test on NCI-H460 lung, in the test with OVCAR-3 ovarian, in the test on SF-268 CNS and with SF-295 CNS was more than 100 µM in each case. Further, the TGI in the test with SN12C renal, in the test on SNB-75 CNS, in the test with SW-620 colon, with U251 CNS and in the test on UACC-62 melanoma was more than 100 µM in each case.
